In this assay the target is T1, mu opiate receptor (MOR) (Rattus norvegicus, UniProt P33535).
T1 construct: from tissue; host or cells: striatum (membrane preparation)
The assay can be described thus: MOR agonist activity using [35S]GTPgS binding assay in striatal membranes. The format is biochemical. As for the experimental part: To assess the mu opiate receptor (MOR) agonist activity of positive compounds from the FLNA screening, compounds were tested in a [^35S]GTPgS binding assay using striatal membranes. […] This assay measures a functional consequence of receptor occupancy at one of the earliest receptor-mediated events. The assay permits for traditional pharmacological parameters of potency, efficacy and antagonist affinity, with the advantage that agonist measures are not subjected to amplification or other modulation that may occur when analyzing parameters further downstream of the receptor.
Thus, striatal tissue was homogenized in 10 volumes of ice cold 25 mM HEPES buffer, pH 7.4, which contained 1 mM EGTA, 100 mM sucrose, 50 mg/ml leupeptin, 0.04 mM PMSF, 2 mg/ml soybean trypsin inhibitor and 0.2% 2-mercaptoethanol. The homogenates were centrifuged at 800×g for 5 minutes and the supernatants were centrifuged at 49,000×g for 20 minutes. The resulting pellets were suspended in 10 volume of reaction buffer, which contained 25 mM HEPES, pH 7.5, 100 mM NaCl, 50 mg/ml leupeptin, 2 mg/ml soybean trypsin inhibitor, 0.04 mM PMSF and 0.02% […].
The resultant striatal membrane preparation (200 mg) was admixed and maintained (incubated) at 30° C. for 5 minutes in reaction buffer as above that additionally contained 1 mM MgCl2 and 0.5 nM [^35S]GTPgS (0.1 mCi/assay, PerkinElmer Life and Analytical Sciences) in a total volume of 250 ml and continued for 5 minutes in the absence or presence of 0.1-10 mM of an assayed compound of interest. The reaction was terminated by dilution with 750 ml of ice-cold reaction buffer that contained 20 mM MgCl2 and 1 mM EGTA and immediate centrifugation at 16,000×g for 5 minutes.
The resulting pellet was solubilized by sonicating for 10 seconds in 0.5 ml of immunoprecipitation buffer containing 0.5% digitonin, 0.2% sodium cholate and 0.5% NP-40. Normal rabbit serum (1 ml) was added to 1 ml of lysate and incubated at 25° C. for 30 minutes. Nonspecific immune complexes were removed by incubation with 25 ml of protein A/G-conjugated agarose beads at 25° C. for 30 minutes followed by centrifugation at 5,000×g at 4° C. for 5 minutes. The supernatant was divided and separately incubated at 25° C. for 30 minutes with antibodies raised against Gao proteins (1:1,000 dilutions).
The immunocomplexes so formed were collected by incubation at 25° C. for 30 minutes with 40 ml of agarose-conjugated protein A/G beads and centrifugation at 5,000×g at 4° C. for 5 minutes. The pellet was washed and suspended in buffer containing 50 mM Tris-HCl, pH 8.0, and 1% NP-40. The radioactivity in the suspension was determined by liquid scintillation spectrometry. […] DAMGO (1 or 10 mM) was used as a positive control.

Where [1] appears, read: 0.1 μM compound as agonist, Series C-2 table.
The mark [2] stands for this setting: 1 μM compound as agonist, Series C-2 table.
The mark [3] stands for this setting: 0.1 μM compound as agonist, Series C-1 table.
[4] abbreviates: 1 μM compound as agonist, Series C-1 table.

T1 sequence (P33535 whole entry): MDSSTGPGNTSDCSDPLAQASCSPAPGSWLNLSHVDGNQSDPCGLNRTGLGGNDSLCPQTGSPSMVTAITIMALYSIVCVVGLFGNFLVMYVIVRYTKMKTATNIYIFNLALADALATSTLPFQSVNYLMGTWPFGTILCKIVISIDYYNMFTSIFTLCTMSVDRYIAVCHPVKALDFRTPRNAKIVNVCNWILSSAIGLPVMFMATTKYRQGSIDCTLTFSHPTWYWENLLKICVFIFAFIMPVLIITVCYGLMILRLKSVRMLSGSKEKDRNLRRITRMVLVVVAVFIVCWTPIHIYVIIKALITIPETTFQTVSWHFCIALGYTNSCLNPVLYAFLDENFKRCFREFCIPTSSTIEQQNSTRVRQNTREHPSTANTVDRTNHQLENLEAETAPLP

`CCN1CCC2(CC1)OCCN2S(=O)(=O)c1ccc(OC)cc1` [Compound C0089M]: the “MOR agonist activity ([35S]GTPgS binding to Gao)” value (from here on “MOR agonist activity”) was 234.5% under setting [1]; 81.9% (1 μM + BFNA, Series C-2 table); 295.3% under setting [2].
On to `COc1ccccc1S(=O)(=O)N1CCC2(CC1)OCCN2S(=O)(=O)c1ccccc1OC` [Compound C0003], for which the “MOR agonist activity” value was determined as 162.3% under setting [3]; 107.7% (1 μM + BFNA, Series C-1 table); 215.9% under setting [4].
For the compound `CC(C)c1ccc(S(=O)(=O)N2CCC3(CC2)OCCN3S(=O)(=O)c2ccc(C(C)C)cc2)cc1` [Compound C0007], the “MOR agonist activity” value under setting [3] was 79.1%; the “MOR agonist activity” value (1 μM + BFNA, Series C-1 table) was 10.9%; the “MOR agonist activity” value under setting [4] was 195.0%.
On the same counts, the results for `COc1ccc(S(=O)(=O)N2CCC3(OCCN3S(=O)(=O)c3ccc(OC)cc3)C3CCCCC32)cc1` (stereo not drawn) [Compound C0144M] are 186.3%, 125.9% and 295.9%.
As for `C=CCN1CCC2(CC1)OCCN2S(=O)(=O)c1ccc(OC)cc1` [Compound C0091M], the “MOR agonist activity” value reads like this: under setting [1], 207.9%; (1 μM + BFNA, Series C-2 table) 80.8%; under setting [2], 274.4%.
On the same counts, the results for `COc1ccc(S(=O)(=O)N2CCC3(CC2)NCCO3)cc1` [Compound C0026] are 207.2%, 21.2% and 288.4%.
Take `CC(=O)Nc1ccc(S(=O)(=O)N2CCC3(CC2)OCCN3S(=O)(=O)c2ccc(NC(C)=O)cc2)cc1` [Compound C0013]: the “MOR agonist activity” value reads like this: under setting [3], 156.6%; (1 μM + BFNA, Series C-1 table) 39.6%; under setting [4], 301.2%.
For the compound `COc1ccc(S(=O)(=O)N2CCOC23CCCNC3)cc1` (stereo not drawn) [Compound C0145M-3], the “MOR agonist activity” value reads like this: under setting [1], 193.0%; (1 μM + BFNA, Series C-2 table) 87.0%; under setting [2], 289.2%.
In the case of `CC(=O)c1ccc(S(=O)(=O)N2CCC3(CC2)NCC(=O)N3Cc2ccccc2)cc1` [Compound C0082M], the “MOR agonist activity” value under setting [3] is 228.1%; the “MOR agonist activity” value (1 μM + BFNA, Series C-1 table) is recorded as 97.6%; the “MOR agonist activity” value under setting [4] is 338.4%.
Turning to `COc1cc(S(=O)(=O)N2CCC3(CC2)OCCN3S(=O)(=O)c2cc(OC)c(OC)c(OC)c2)cc(OC)c1OC` [Compound C0062], the “MOR agonist activity” value is listed as 127.8% under setting [3]; 59.8% (1 μM + BFNA, Series C-1 table); 310.5% under setting [4].
For `COc1ccc(S(=O)(=O)N2CCOC23CCN(CC2CC2)CC3)cc1` [Compound C0090M], the “MOR agonist activity” value worked out at 237.0% under setting [1]; 41.0% (1 μM + BFNA, Series C-2 table); 341.0% under setting [2].
`O=C(OCc1ccccc1)c1ccc(S(=O)(=O)N2CCC3(CC2)OCCN3S(=O)(=O)c2ccc(C(=O)OCc3ccccc3)cc2)cc1` [Compound C0042]: the “MOR agonist activity” value reads like this: under setting [3], 167.1%; (1 μM + BFNA, Series C-1 table) 110.6%; under setting [4], 260.9%.
Take `O=C1CNC2(CCN(CC3CC3)CC2)N1Cc1ccccc1` [Compound C0124M]: the “MOR agonist activity” value is 252.0% under setting [1]; 61.4% (1 μM + BFNA, Series C-2 table); 305.1% under setting [2].
Turning to `COc1ccc(S(=O)(=O)N2CCOC23CCN(S(=O)(=O)c2ccc(C(C)=O)cc2)CC3)cc1` [Compound C0047], the “MOR agonist activity” value is recorded as 142.2% under setting [3]; 80.1% (1 μM + BFNA, Series C-1 table); 206.1% under setting [4].
For `O=C(c1ccc([N+](=O)[O-])cc1)N1CCC2(CC1)OCCN2C(=O)c1ccc([N+](=O)[O-])cc1` [Compound C0032] the same measures were 145.4%, 80.9% and 202.0%.
`CC(=O)c1ccc(S(=O)(=O)N2CC(CN(C)C)OC23CCN(CC2CC2)CC3)cc1` (stereo not drawn) [Compound C0128M]: the “MOR agonist activity” value came to 197.8% under setting [1]; 63.9% (1 μM + BFNA, Series C-2 table); 286.0% under setting [2].
For the compound `CC(=O)c1ccc(S(=O)(=O)N2CC(=O)NC23CCNCC3)cc1` [Compound C0086M], the “MOR agonist activity” value turned out to be 206.8% under setting [1]; 152.3% (1 μM + BFNA, Series C-2 table); 265.3% under setting [2].
`CC(=O)c1ccc(S(=O)(=O)N2CC(CN(C)C)OC23CCNCC3)cc1` (stereo not drawn) [Compound C0118M]: the “MOR agonist activity” value under setting [1] was determined as 166.2%; the “MOR agonist activity” value (1 μM + BFNA, Series C-2 table) came out at 79.2%; the “MOR agonist activity” value under setting [2] turned out to be 261.5%.
Turning to `CC(=O)c1ccc(S(=O)(=O)N2CCC3(CC2)NC(=O)CO3)cc1` [Compound C0087M], the “MOR agonist activity” value by setting is: under setting [1], 262.8%; (1 μM + BFNA, Series C-2 table) 142.5%; under setting [2], 329.6%.
`COc1ccc(S(=O)(=O)N2CCSC23CCNCC3)cc1` [S-C0027]: the “MOR agonist activity” value stood at 156.2% under setting [1]; 56.2% (1 μM + BFNA, Series C-2 table); 286.8% under setting [2].
For `C=CCN1CCC2(CC1)OCCN2S(=O)(=O)c1ccc(C(C)=O)cc1` [Compound C0096M], the “MOR agonist activity” value by setting is: under setting [1], 186.4%; (1 μM + BFNA, Series C-2 table) 127.1%; under setting [2], 328.9%.
On to `CS(=O)(=O)c1ccc(S(=O)(=O)N2CCOC23CCNCC3)cc1` [Compound C0116M], for which the “MOR agonist activity” value by setting is: under setting [1], 258.4%; (1 μM + BFNA, Series C-2 table) 152.0%; under setting [2], 302.8%.
With `COc1ccc(C(=O)N2CCOC23CCN(S(=O)(=O)c2ccc(OC)cc2)CC3)cc1` [Compound C0019], the “MOR agonist activity” value stood at 104.4% under setting [3]; 52.8% (1 μM + BFNA, Series C-1 table); 176.6% under setting [4].
Consider `O=C(c1ccc([N+](=O)[O-])cc1)N1CCC2(CC1)OCCN2S(=O)(=O)c1ccc([N+](=O)[O-])cc1` [Compound C0022], for which the “MOR agonist activity” value reads like this: under setting [3], 194.3%; (1 μM + BFNA, Series C-1 table) 13.4%; under setting [4], 328.7%.
With `CCOC(=O)CN1CCC2(CC1)OCCN2S(=O)(=O)c1ccc(C(C)=O)cc1` [Compound C0099M], the “MOR agonist activity” value was 157.2% under setting [1]; 114.7% (1 μM + BFNA, Series C-2 table); 195.7% under setting [2].

The values are drawn from US20220233512A1, “INHIBITING AN IMMUNE RESPONSE MEDIATED BY ONE OR MORE OF TLR2, RAGE, CCR5, CXCR4 AND CD4” (priority 2020, published 2022).
